Source: US20250186405A1, “Compound For Use In Treating Narcolepsy” (Alkermes, Inc., priority 2023, published 2025)

Tested on: healthy adult subjects
Assay: Part 2 MAD: treatment-emergent adverse events, once daily for 10 days (N = 6 per dose)
Assay type: in vivo, human
Text: Part 2 of the study is a MAD evaluation in healthy subjects consisting of 4 cohorts: Cohorts 1-4 received powder-in-capsule or matching placebo. Dose levels were as follows:
Safety assessments were made. A plasma PK sample was collected pre-dose on Day 8.

What does the source list for `CS(=O)(=O)N[C@H]1CCCN2C(=O)COc3ccccc3C3CCC(CC3)OCC12` (stereo partly drawn) [Compound A, N-[(4S,4aR,7α,10α)-1,2,3,4,4a,5,7,8,9,10,16,17-dodecahydro-17-oxo-7,10-ethanopyrido[1,2-d][1,7,4]benzodioxaazacyclotridecin-4-yl]methanesulfonamide]?
AE Leading to Study Drug Discontinuation (3 mg): 0 n; Any SAEs (3 mg): 0 n; Any TEAE (3 mg): 2 n; Death (3 mg): 0 n; TEAE Abdominal pain (3 mg): 0 n; TEAE Abdominal pain lower (3 mg): 0 n; TEAE Abnormal dreams (3 mg): 1 n; TEAE Back pain (3 mg): 0 n; TEAE Balance disorder (3 mg): 0 n; TEAE Blood pressure systolic increased (3 mg): 0 n; TEAE Cough (3 mg): 1 n; TEAE Depressed mood (3 mg): 0 n; TEAE Diarrhoea (3 mg): 0 n; TEAE Dizziness (3 mg): 0 n; TEAE Euphoric mood (3 mg): 0 n; TEAE Feeling of relaxation (3 mg): 0 n; TEAE Headache (3 mg): 0 n; TEAE Hypervigilance (3 mg): 0 n; TEAE Insomnia (3 mg): 0 n; TEAE Nocturia (3 mg): 0 n; TEAE Photophobia (3 mg): 0 n; TEAE Pollakiuria (3 mg): 0 n; TEAE Salivary hypersecretion (3 mg): 0 n; TEAE Visual impairment (3 mg): 0 n; TEAE Vomiting (3 mg): 0 n; TEAE by Highest Relationship: Not Related (3 mg): 2 n; TEAE by Highest Relationship: Related (3 mg): 0 n; TEAE by Highest Severity: Mild (3 mg): 2 n; TEAE by Highest Severity: Moderate (3 mg): 0 n; TEAE by Highest Severity: Severe (3 mg): 0 n; AE Leading to Study Drug Discontinuation (8 mg): 0 n; Any SAEs (8 mg): 0 n; Any TEAE (8 mg): 5 n; Death (8 mg): 0 n; TEAE Abdominal pain (8 mg): 1 n; TEAE Abdominal pain lower (8 mg): 1 n; TEAE Abnormal dreams (8 mg): 0 n; TEAE Back pain (8 mg): 0 n; TEAE Balance disorder (8 mg): 0 n; TEAE Blood pressure systolic increased (8 mg): 0 n; TEAE Cough (8 mg): 0 n; TEAE Depressed mood (8 mg): 1 n; TEAE Diarrhoea (8 mg): 2 n; TEAE Dizziness (8 mg): 0 n; TEAE Euphoric mood (8 mg): 0 n; TEAE Feeling of relaxation (8 mg): 0 n; TEAE Headache (8 mg): 0 n; TEAE Hypervigilance (8 mg): 1 n; TEAE Insomnia (8 mg): 2 n; TEAE Nocturia (8 mg): 1 n; TEAE Photophobia (8 mg): 1 n; TEAE Pollakiuria (8 mg): 0 n; TEAE Salivary hypersecretion (8 mg): 0 n; TEAE Visual impairment (8 mg): 0 n; TEAE Vomiting (8 mg): 1 n; TEAE by Highest Relationship: Not Related (8 mg): 3 n; TEAE by Highest Relationship: Related (8 mg): 2 n; TEAE by Highest Severity: Mild (8 mg): 4 n; TEAE by Highest Severity: Moderate (8 mg): 1 n; TEAE by Highest Severity: Severe (8 mg): 0 n; AE Leading to Study Drug Discontinuation (15 mg): 0 n; Any SAEs (15 mg): 0 n; Any TEAE (15 mg): 3 n; Death (15 mg): 0 n; TEAE Abdominal pain (15 mg): 0 n; TEAE Abdominal pain lower (15 mg): 0 n; TEAE Abnormal dreams (15 mg): 0 n; TEAE Back pain (15 mg): 0 n; TEAE Balance disorder (15 mg): 0 n; TEAE Blood pressure systolic increased (15 mg): 0 n; TEAE Cough (15 mg): 0 n; TEAE Depressed mood (15 mg): 0 n; TEAE Diarrhoea (15 mg): 0 n; TEAE Dizziness (15 mg): 3 n; TEAE Euphoric mood (15 mg): 0 n
